The values that follow come from patent publication US20240391954A1, “MC4R AGONIST PEPTIDES” (The Regents of the University of Michigan, priority 2021, published 2024).

Broadly, the fraction unbound is free concentration divided by total concentration. Low values mean little free substance, high ones much free substance.

One data set addresses T1, human MC1R (Homo sapiens, UniProt Q01726).
T1 construct: expressed in transfected cells; host or cells: HEK-293 cells stably expressing hMC1R and the GScAMP22F cAMP sensor
Description: split-luciferase cAMP sensor assay, agonist mode, hMC1R. The class given is cell-based. Conditions: MC4R versus MC1R. An outline of the steps: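 HEK-293 cells stably expressing hMC1R and the GScAMP22F split-luciferase cAMP sensor, preloaded 120 min at 37° C with D-luciferin in serum-free medium. Peptide responses were taken as peak luminescence over 2-13 min minus 2-min baseline, normalized to the α-MSH ECmax. EC50 was obtained from a four-parameter variable-slope fit.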

Data set [1] can be described thus: Pharmacokinetics: plasma and brain concentration after IP injection. The class given is in vivo, mouse. Conditions: IP 15 mg/kg; for Brain concentration, individual mice 1-3 / Plasma concentration, individual mice 1-3: 15 mg/kg. The procedure:
FIG. 5. Pharmacokinetic data for an exemplary peptide relative to setmelanotide. Peptides at 1.5 mg/mL in PBS containing 10% DMSO and 10% PEG-400 were given by IP injection (15 mg/kg) to female CD-1 mice (n=15). At the given time points (0.5 h, 2 h, 4 h, 7 h and 24 h), brain samples were taken out and frozen at −80° C. immediately for later preparation and analysis, and blood samples were collected using heparinized calibrated pipettes. Blood samples were centrifuged at 15000 rpm for 10 min. Subsequently, blood plasma was collected from the upper layer. The plasma was frozen at −80° C. for later analysis. Peptide concentrations at times indicated were determined by LC MS/MS, using non-zero standards in blank Plasma and Brain Samples.
The drug at 1.5 mg/mL in PBS containing 10% DMSO and 10% PEG-400 was given by IP injection (15 mg/kg). At the given time points (0.5 h, 2 h, 4 h, 7 h and 24 h), brain samples were taken out and frozen at −80° C. immediately for later preparation and analysis, and blood samples were collected using heparinized calibrated pipettes. Blood samples were centrifuged at 15000 rpm for 10 min. Subsequently, blood plasma was collected from the upper layer. The plasma was frozen at −80° C. for later analysis.
The analytical curves were constructed using non-zero standards in the blank Plasma and Brain Samples. A blank sample (matrix sample processed without internal standard) was used to exclude contamination. The linear regression analysis of CTX1227/setmelanotide were performed by plotting the peak area ratio (y) against the CTX1227/setmelanotide concentration (x) in ng/mL, respectively.

The nature of data set [2]: Plasma protein binding (Centrifree ultrafiltration). The class given is in vitro ADME. In outline: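 Compound added to plasma from 1 mM, 100 µM and 10 µM DMSO stocks (1:100), incubated 5 min at 25 °C, then ultrafiltered at 2000× g for 20 min. Plasma and ultrafiltrate quantified by LC-MS/MS; % free = filtrate/plasma ×100, % bound = 100 − % free.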

Values joined by “and” are separate entries in the source; they are usually repeats but may differ in a detail not shown here. Identical values can stand only once. Positions of bridges follow the written chain, without caps; N, C: chain ends. Non-standard residues stand in square brackets, D forms with d. Residues, ends and D or L forms follow the SMILES beside them. Nle = CCCC[C@H](N)C(=O)O

T1 sequence (Q01726 whole entry): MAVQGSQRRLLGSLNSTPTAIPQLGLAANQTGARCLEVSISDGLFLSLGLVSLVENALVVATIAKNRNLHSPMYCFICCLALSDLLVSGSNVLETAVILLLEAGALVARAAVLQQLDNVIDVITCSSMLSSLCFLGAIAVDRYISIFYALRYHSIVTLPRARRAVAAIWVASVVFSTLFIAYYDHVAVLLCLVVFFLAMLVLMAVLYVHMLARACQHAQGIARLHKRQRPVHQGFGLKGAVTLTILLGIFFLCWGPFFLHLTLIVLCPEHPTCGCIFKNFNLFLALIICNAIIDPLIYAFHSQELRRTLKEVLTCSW

With `CCCC[C@H](NC(=O)[C@H](CCCNC(=N)N)NC(C)=O)C(=O)N[C@H]1CSSC[C@@H](C(N)=O)NC(=O)[C@H](Cc2c[nH]c3ccccc23)NC(=O)[C@H](CCCNC(=N)N)NC(=O)[C@@H](Cc2ccccc2)NC(=O)[C@H](Cc2c[nH]cn2)NC1=O` [CTX-1227, Arg-Nle-cyclo(Cys-His-D-Phe-Arg-Trp-Cys)] (Ac-R[Nle]CH[dF]RWC-NH2; disulfide 3-8 (inferred)), on human MC1R, the “MC4R selectivity vs MC1R” value is listed as 0.92. Besides, the “Brain concentration, individual mice 1-3” value in data set [1] (0.5 h, brain, individual animals) was 99 ng/g and 263.5 ng/g and 182 ng/g; in data set [1] (2 h, brain, individual animals), 287.5 ng/g and 176.5 ng/g and 327.5 ng/g; in data set [1] (4 h, brain, individual animals) it was 158 ng/g and 142.5 ng/g and 210 ng/g; in data set [1] (7 h, brain, individual animals), 223 ng/g and 224.5 ng/g and 119 ng/g; in data set [1] (24 h, brain, individual animals), “BlQ and BLQ (2×)”. The “Plasma concentration, individual mice 1-3” value is 20900 ng/mL and 25000 ng/mL and 68700 ng/mL in data set [1] (0.5 h, plasma, individual animals); 50200 ng/mL and 17300 ng/mL and 20700 ng/mL in data set [1] (2 h, plasma, individual animals); 19400 ng/mL and 23300 ng/mL and 33400 ng/mL in data set [1] (4 h, plasma, individual animals); 9360 ng/mL and 9210 ng/mL and 2880 ng/mL in data set [1] (7 h, plasma, individual animals); “BLQ” in data set [1] (24 h, plasma, individual animals). Also, the tissue level at time at 0.5 h in data set [1] (female, CD-1, mouse, mice, 0.5 h, brain, mean of 3) came to 182 ng/g. The level at 0.5 h in data set [1] (female, CD-1, mouse, mice, 0.5 h, plasma, mean of 3) was 38200 ng/mL. In addition, in data set [1] (female, CD-1, mouse, mice, 2 h, brain, mean of 3), the tissue level at time at 2 h is 264 ng/g. Also, the level at 2 h in data set [1] (female, CD-1, mouse, mice, 2 h, plasma, mean of 3) is 29400 ng/mL. This molecule also had a tissue level at time at 4 h in data set [1] (female, CD-1, mouse, mice, 4 h, brain, mean of 3) of 170 ng/g. In addition, in data set [1] (female, CD-1, mouse, mice, 4 h, plasma, mean of 3), the level at 4 h turned out to be 25400 ng/mL. For the same molecule, the tissue level at time at 7 h in data set [1] (female, CD-1, mouse, mice, 7 h, brain, mean of 3) worked out at 189 ng/g. In data set [1] (female, CD-1, mouse, mice, 7 h, plasma, mean of 3), this molecule came in with a level at 7 h of 7150 ng/mL. In data set [1] (female, CD-1, mouse, mice, 24 h, plasma, individual animals, read-out: Plasma concentration, individual mice 1-3), the level at 24 h was 15 ng/mL. In addition, in data set [2] (0.1 uM), the fraction unbound at 5 min, 0.1 µM is 0.5. The molecule also gave a fraction unbound at 5 min, 1 µM in data set [2] (1.0 uM) of 0.53. The fraction unbound at 5 min, 10 µM in data set [2] (10.0 uM) was 0.46.
